These results are taken from patent US10828303B2, “Composition comprising combination of TRH analog with arundic acid, and pharmaceutically acceptable salt of arundic acid” (Brivention Pharmaceutical (Shanghai) Inc., priority 2016, dated 2020).

Data set [1] in a line: Crystal polymorph screening by the heating method. The class given is physicochemical. Conditions: open vial, oven 60° C. or 80° C. The method, then:
30 mg of the compound of Synthesis Example 12 was placed in an open vial, and incubated in an oven heated to 60° C. or 80° C. for 19 hours or for 91 hours. After completion of the incubation, XRPD analysis and polarizing microscope observation were performed. FIG. 26 and FIG. 27 show the results.

The nature of data set [2]: Approximate solubility by manual dilution and visual observation. The class given is physicochemical. Conditions: 25° C.; for solubility: thermodynamic from solid, read-out: Solubility at 25° C. S. The method, then:
The approximate solubility of the calcium salt in different solvents at 25° C. was tested by manual dilutions in combination with visual observation.

In data set [3] the test system is patients with Alzheimer's disease or patients with cerebrovascular dementia. The following applies: reported in literature; cited from earlier work.

Structures are written as SMILES. “Also recorded” adds a separate entry of the source. Like-named read-outs stand apart in the source and are kept apart here.

Take `CCCCCC[C@@H](CCC)C(=O)[O][Ca][O]C(=O)[C@@H](CCC)CCCCCC` [Compound of Synthesis Example 12, calcium (R)-2-propyloctanoate (S)-2-propyloctanoate]: the “Changes in morphology or XRPD pattern on heating” value in data set [1] (19 hours) is “no changes in morphology or XRPD pattern were observed”. The “Morphological changes on heating” value in data set [1] (91 hours) is “no morphological changes of the compound were observed”. The solubility is above 210 mg/mL in data set [2] (2-propanol (printed 2-Promanol), organic solvent or mixture, 2-Promanol); below 1.7 mg/mL in data set [2] (organic solvent or mixture, Acetone); below 1.5 mg/mL in data set [2] (organic solvent or mixture, CAN); above 199 mg/mL in data set [2] (organic solvent or mixture, EA); above 185 mg/mL in data set [2] (organic solvent or mixture, Ethanol); 94.4 to 189 mg/mL in data set [2] (organic solvent or mixture, MEK). Further, the solubility was above 215 mg/mL in data set [2] (organic solvent or mixture, MtBE); above 198 mg/mL in data set [2] (organic solvent or mixture, THF); below 1 mg/mL in data set [2] (Water). Besides, the Solubility in words entry in data set [2] (different solvents) was “poorly soluble in water; also recorded: dissolved in ethanol, 2-propanol, MtBE, EA, and THF”.
As for `NC(=O)[C@@H]1CCCN1C(=O)[C@H](Cc1cnc[nH]1)NC(=O)[C@@H]1CCC(=O)N1` [TRH], the “Effect on arousal, mood, semantic memory in patients” value in data set [3] is on record as “improve the level of arousal, mood, semantic memory”.

The term solubility denotes the dissolved amount per volume that the medium holds.
